Test results published in patent US9012443B2 (Amgen Inc., priority 2011, dated 2015).

Assays:
Nav 1.7 [1] = biological target: T1, Nav 1.7 (Homo sapiens (Human), UniProt Q15858); experiment: Nav 1.7 IWQ in vitro assay (IonWorks Quattro population patch-clamp); type: cell-based; conditions: for IC50: 293 cells stably transfected with Nav 1.7, second part of table, read-out: Nav1.7 IWQ IC50 IP
Summary of the method: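 HEK293 cells stably expressing Nav 1.7, recorded by automated population patch-clamp with a train of depolarizations producing increasing inactivation. Single compound concentration added during 3–8 min unclamped period, then same protocol repeated. Leak-corrected current at 26th pulse to −20 mV gave percent block (duplicate); IC50 fitted from concentration–block curves.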

Nav 1.7 [2] = biological target: T1, Nav 1.7; experiment: Nav 1.7 in vitro PX assay (PatchXpress whole cell voltage clamp); type: cell-based; conditions: 293 cells, human Nav1.7, partially inactivated state; read-out: Nav1.7 PX IC50 IP
Summary of the method: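 HEK293 cells stably expressing human Nav1.7, whole-cell voltage clamp on PatchXpress, held at potential giving 20–50% inactivation; current elicited by 20 msec pulse to −10 mV.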

T1 sequence (Q15858 whole entry): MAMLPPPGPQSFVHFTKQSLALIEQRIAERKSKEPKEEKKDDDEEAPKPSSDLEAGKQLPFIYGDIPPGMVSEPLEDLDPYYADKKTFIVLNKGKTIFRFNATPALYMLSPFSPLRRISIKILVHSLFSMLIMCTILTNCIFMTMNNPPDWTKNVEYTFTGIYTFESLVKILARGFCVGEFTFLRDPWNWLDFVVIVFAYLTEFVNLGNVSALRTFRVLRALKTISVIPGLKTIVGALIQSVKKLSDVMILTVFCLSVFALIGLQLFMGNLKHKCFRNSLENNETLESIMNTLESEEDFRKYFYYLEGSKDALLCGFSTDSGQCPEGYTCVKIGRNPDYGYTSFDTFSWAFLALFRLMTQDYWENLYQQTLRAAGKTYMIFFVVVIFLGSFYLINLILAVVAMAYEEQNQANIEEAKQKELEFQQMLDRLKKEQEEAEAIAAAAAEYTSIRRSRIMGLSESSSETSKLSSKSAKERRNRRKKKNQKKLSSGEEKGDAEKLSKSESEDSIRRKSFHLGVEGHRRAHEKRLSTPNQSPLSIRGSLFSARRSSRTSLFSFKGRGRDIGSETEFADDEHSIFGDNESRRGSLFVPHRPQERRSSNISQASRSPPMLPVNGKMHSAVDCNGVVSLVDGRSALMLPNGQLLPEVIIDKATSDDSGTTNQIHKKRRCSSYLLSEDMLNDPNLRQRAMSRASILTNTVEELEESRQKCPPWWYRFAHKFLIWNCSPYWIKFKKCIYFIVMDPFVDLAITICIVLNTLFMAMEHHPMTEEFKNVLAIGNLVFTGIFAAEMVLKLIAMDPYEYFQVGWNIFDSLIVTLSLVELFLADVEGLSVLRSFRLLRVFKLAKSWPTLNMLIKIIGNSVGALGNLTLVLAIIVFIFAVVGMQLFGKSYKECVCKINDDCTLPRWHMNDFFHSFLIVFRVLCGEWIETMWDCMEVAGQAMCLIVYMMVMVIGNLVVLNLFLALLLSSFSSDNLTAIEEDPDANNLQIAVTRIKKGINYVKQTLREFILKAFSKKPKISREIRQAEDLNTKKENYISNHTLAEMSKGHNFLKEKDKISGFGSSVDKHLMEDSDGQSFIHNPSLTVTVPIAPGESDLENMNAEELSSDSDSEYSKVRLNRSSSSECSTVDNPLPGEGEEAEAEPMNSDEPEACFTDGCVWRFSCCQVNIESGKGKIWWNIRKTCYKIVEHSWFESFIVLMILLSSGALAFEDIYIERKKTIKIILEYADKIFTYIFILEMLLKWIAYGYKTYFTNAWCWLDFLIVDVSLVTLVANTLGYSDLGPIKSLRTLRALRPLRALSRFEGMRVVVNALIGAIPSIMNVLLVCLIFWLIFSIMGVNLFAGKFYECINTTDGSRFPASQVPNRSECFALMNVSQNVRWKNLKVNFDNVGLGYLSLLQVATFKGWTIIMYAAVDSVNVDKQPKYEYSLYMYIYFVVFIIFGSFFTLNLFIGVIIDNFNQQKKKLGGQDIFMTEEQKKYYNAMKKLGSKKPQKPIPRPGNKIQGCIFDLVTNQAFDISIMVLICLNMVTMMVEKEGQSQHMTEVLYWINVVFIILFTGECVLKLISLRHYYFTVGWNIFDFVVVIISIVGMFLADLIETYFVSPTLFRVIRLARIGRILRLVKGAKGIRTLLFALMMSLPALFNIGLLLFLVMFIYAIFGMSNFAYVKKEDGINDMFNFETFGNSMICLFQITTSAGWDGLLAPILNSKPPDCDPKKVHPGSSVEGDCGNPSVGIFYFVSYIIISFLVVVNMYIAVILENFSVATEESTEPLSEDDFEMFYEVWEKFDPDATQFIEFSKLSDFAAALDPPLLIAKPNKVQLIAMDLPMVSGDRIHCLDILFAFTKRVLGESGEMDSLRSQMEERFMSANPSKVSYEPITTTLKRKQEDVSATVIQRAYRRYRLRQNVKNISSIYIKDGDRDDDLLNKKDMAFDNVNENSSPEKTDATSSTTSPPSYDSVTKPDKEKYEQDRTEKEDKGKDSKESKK

COc1cc(Cl)ccc1-c1ccnc2cc(S(=O)(=O)Nc3nccs3)ccc12 [Example 275, 4-(4-CHLORO-2-METHOXYPHENYL)-N-(THIAZOL-2-YL)QUINOLINE-7-SULFONAMIDE]
IC50 (Nav 1.7 [1]): 40 nM | IC50 (Nav 1.7 [2]): 420 nM

COc1cc(C(F)F)ccc1-c1ncnc2cc(S(=O)(=O)Nc3nccs3)ccc12 [Example 266, 4-(4-(DIFLUOROMETHYL)-2-METHOXYPHENYL)-N-(THIAZOL-2-YL)QUINAZOLINE-7-SULFONAMIDE]
IC50 (Nav 1.7 [1]): 10 nM | IC50 (Nav 1.7 [2]): 280 nM

COc1cc(C(F)(F)F)ccc1-c1c(N)cnc2cc(S(=O)(=O)Nc3nccs3)ccc12 [Example 283, 3-AMINO-4-(2-METHOXY-4-(TRIFLUOROMETHYL)PHENYL)-N-(THIAZOL-2-YL)QUINOLINE-7-SULFONAMIDE]
IC50 (Nav 1.7 [1]): 10 nM | IC50 (Nav 1.7 [2]): 210 nM

COc1cc(-c2cccnc2)ccc1-c1nccc2cc(S(=O)(=O)Nc3nccs3)ccc12 [Example 204, 1-(2-METHOXY-4-(PYRIDIN-3-YL)PHENYL)-N-(THIAZOL-2-YL)ISOQUINOLINE-6-SULFONAMIDE]
IC50 (Nav 1.7 [1]): 30 nM | IC50 (Nav 1.7 [2]): 614 nM

Cc1cc(Cl)ccc1-c1nccc2cc(S(=O)(=O)Nc3nccs3)ccc12 [Example 209, 1-(4-CHLORO-2-METHYLPHENYL)-N-(THIAZOL-2-YL)ISOQUINOLINE-6-SULFONAMIDE 2,2,2-TRIFLUOROACETATE]
IC50 (Nav 1.7 [1]): 60 nM | IC50 (Nav 1.7 [2]): 385 nM

O=S(=O)(Nc1ncns1)c1ccc2c(N3CCC[C@H]3c3ccncc3)cccc2c1 (single isomer, unassigned) [Example 89]
IC50 (Nav 1.7 [1]): 290 nM | IC50 (Nav 1.7 [2]): 2330 nM

COc1cc(C(F)(F)F)ccc1-c1c(C#N)cnc2cc(S(=O)(=O)Nc3nccs3)ccc12 [Example 284, 3-CYANO-4-(2-METHOXY-4-(TRIFLUOROMETHYL)PHENYL)-N-(THIAZOL-2-YL)QUINOLINE-7-SULFONAMIDE]
IC50 (Nav 1.7 [1]): 60 nM | IC50 (Nav 1.7 [2]): 320 nM

COC(=N)c1cc(C(F)(F)F)ccc1-c1nccc2cc(S(=O)(=O)Nc3nccs3)ccc12 [Example 226, METHYL 2-(6-(N-(THIAZOL-2-YL)SULFAMOYL)ISOQUINOLIN-1-YL)-5-(TRIFLUOROMETHYL)BENZIMIDATE]
IC50 (Nav 1.7 [1]): 90 nM | IC50 (Nav 1.7 [2]): 600 nM

COc1cc(C(F)(F)F)ccc1-c1ncc(OC)c2cc(S(=O)(=O)Nc3nccs3)ccc12 [Example 231, 4-METHOXY-1-(2-METHOXY-4-(TRIFLUOROMETHYL)PHENYL)-N-(THIAZOL-2-YL)ISOQUINOLINE-6-SULFONAMIDE 2,2,2-TRIFLUOROACETATE]
IC50 (Nav 1.7 [1]): 40 nM | IC50 (Nav 1.7 [2]): 270 nM

O=S(=O)(Nc1ncns1)c1ccc2c(NCc3ccccc3)cccc2c1 [Example 99, 5-(benzylamino)-N-(1,2,4-thiadiazol-5-yl)naphthalene-2-sulfonamide]
IC50 (Nav 1.7 [1]): 1180 nM | IC50 (Nav 1.7 [2]): 4450 nM

COc1ccccc1-c1cccc2cc(S(=O)(=O)Nc3ncns3)ccc12 [Example 94]
IC50 (Nav 1.7 [1]): 10 nM | IC50 (Nav 1.7 [2]): 57.2 nM

COc1cc(OC(F)(F)F)ccc1-c1nccc2cc(S(=O)(=O)Nc3ccncn3)ccc12 [Example 153, 1-(2-METHOXY-4-(TRIFLUOROMETHOXY)PHENYL)-N-(PYRIMIDIN-4-YL)ISOQUINOLINE-6-SULFONAMIDE]
IC50 (Nav 1.7 [1]): 20 nM | IC50 (Nav 1.7 [2]): 914 nM

O=S(=O)(Nc1ncns1)c1ccc2c(C3CCCN3c3ccccn3)cccc2c1 (stereo not shown) [Example 96]
IC50 (Nav 1.7 [1]): 80 nM | IC50 (Nav 1.7 [2]): 323 nM

O=C(c1ccccc1)N1CCCC1c1cccc2cc(S(=O)(=O)Nc3nccs3)ccc12 (stereo not shown) [Example 101]
IC50 (Nav 1.7 [1]): 1160 nM | IC50 (Nav 1.7 [2]): 11800 nM

Cc1c(-c2nccc3cc(S(=O)(=O)Nc4nccs4)ccc23)cnn1-c1ccccc1 [Example 208, 1-(5-METHYL-1-PHENYL-1H-PYRAZOL-4-YL)-N-(THIAZOL-2-YL)ISOQUINOLINE-6-SULFONAMIDE 2,2,2-TRIFLUOROACETATE]
IC50 (Nav 1.7 [1]): 2140 nM | IC50 (Nav 1.7 [2]): 27500 nM

O=S(=O)(Nc1ccncn1)c1ccc2c(-c3ccc(C(F)(F)F)cc3C3CCNCC3)cccc2c1 [Example 120]
IC50 (Nav 1.7 [1]): 10 nM | IC50 (Nav 1.7 [2]): 125 nM

Cc1cc(C#N)ccc1-c1nccc2cc(S(=O)(=O)Nc3nccs3)ccc12 [Example 210, 1-(4-CYANO-2-METHYLPHENYL)-N-(THIAZOL-2-YL)ISOQUINOLINE-6-SULFONAMIDE 2,2,2-TRIFLUOROACETATE]
IC50 (Nav 1.7 [1]): 140 nM | IC50 (Nav 1.7 [2]): 888 nM

COc1cc(C(F)F)ccc1-c1nccc2cc(S(=O)(=O)Nc3nccs3)ccc12 [Example 224, 1-(4-(DIFLUOROMETHYL)-2-METHOXYPHENYL)-N-(THIAZOL-2-YL)ISOQUINOLINE-6-SULFONAMIDE]
IC50 (Nav 1.7 [1]): 20 nM | IC50 (Nav 1.7 [2]): 313 nM

O=S(=O)(Nc1nccs1)c1ccc2c(-c3ccc(F)cc3-c3ccncc3)nccc2c1 [Example 126, 1-(4-FLUORO-2-(PYRIDIN-4-YL)PHENYL)-N-(THIAZOL-2-YL)ISOQUINOLINE-6-SULFONAMIDE]
IC50 (Nav 1.7 [1]): 130 nM | IC50 (Nav 1.7 [2]): 2660 nM

O=S(=O)(Nc1nccs1)c1ccc2c(C3CCCN3Cc3ccccc3)cccc2c1 (stereo not shown) [Example 98]
IC50 (Nav 1.7 [1]): 2220 nM | IC50 (Nav 1.7 [2]): 13000 nM

Cn1cccc1-c1nccc2cc(S(=O)(=O)Nc3nccs3)ccc12 [Example 244, 1-(1-METHYL-1H-PYRROL-2-YL)-N-(THIAZOL-2-YL)ISOQUINOLINE-6-SULFONAMIDE]
IC50 (Nav 1.7 [1]): 1170 nM | IC50 (Nav 1.7 [2]): 11300 nM

O=S(=O)(Nc1ccncn1)c1ccc2c(-c3ccc(C(F)(F)F)cc3Cl)nccc2c1 [Example 156, 1-(2-CHLORO-4-(TRIFLUOROMETHYL)PHENYL)-N-(PYRIMIDIN-4-YL)ISOQUINOLINE-6-SULFONAMIDE]
IC50 (Nav 1.7 [1]): 220 nM | IC50 (Nav 1.7 [2]): 2850 nM

COc1cc(C(F)(F)F)ccc1-c1ncnc2cc(S(=O)(=O)Nc3ncns3)ccc12 [Example 265, 4-(2-METHOXY-4-(TRIFLUOROMETHYL)PHENYL)-N-(1,2,4-THIADIAZOL-5-YL)QUINAZOLINE-7-SULFONAMIDE]
IC50 (Nav 1.7 [1]): 20 nM | IC50 (Nav 1.7 [2]): 150 nM

COc1cc(C(F)(F)F)ccc1-c1nncc2cc(S(=O)(=O)Nc3ccncn3)ccc12 [Example 254, 1-(2-METHOXY-4-(TRIFLUOROMETHYL)PHENYL)-N-(PYRIMIDIN-4-YL)PHTHALAZINE-6-SULFONAMIDE]
IC50 (Nav 1.7 [1]): 260 nM | IC50 (Nav 1.7 [2]): 5260 nM

COc1cc(C(F)(F)F)ccc1-c1nccc2cc(S(=O)(=O)Nc3nncs3)ccc12 [Example 184, 1-(2-METHOXY-4-(TRIFLUOROMETHYL)PHENYL)-N-(1,3,4-THIADIAZOL-2-YL)ISOQUINOLINE-6-SULFONAMIDE]
IC50 (Nav 1.7 [1]): 320 nM | IC50 (Nav 1.7 [2]): 912 nM

O=S(=O)(Nc1ncns1)c1ccc2c(N3CCCC3c3ccncc3)cccc2c1 (stereo not shown) [Example 88]
IC50 (Nav 1.7 [1]): 20 nM | IC50 (Nav 1.7 [2]): 238 nM

COc1cccc(F)c1-c1nccc2cc(S(=O)(=O)Nc3ccncn3)ccc12 [Example 158, 1-(2-FLUORO-6-METHOXYPHENYL)-N-(PYRIMIDIN-4-YL)ISOQUINOLINE-6-SULFONAMIDE]
IC50 (Nav 1.7 [1]): 180 nM | IC50 (Nav 1.7 [2]): 5030 nM

COc1cccc(OC)c1-c1nccc2cc(S(=O)(=O)Nc3ccncn3)ccc12 [Example 171, 1-(2,6-DIMETHOXYPHENYL)-N-(PYRIMIDIN-4-YL)ISOQUINOLINE-6-SULFONAMIDE]
IC50 (Nav 1.7 [1]): 730 nM | IC50 (Nav 1.7 [2]): 23000 nM

O=S(=O)(Nc1ccncn1)c1ccc2c(-c3ccccc3OCC(F)(F)F)nccc2c1 [Example 174, N-(PYRIMIDIN-4-YL)-1-(2-(2,2,2-TRIFLUOROETHOXY)PHENYL)ISOQUINOLINE-6-SULFONAMIDE]
IC50 (Nav 1.7 [1]): 640 nM | IC50 (Nav 1.7 [2]): 29800 nM

Cn1ccnc1-c1cc(C(F)(F)F)ccc1-c1cccc2cc(S(=O)(=O)Nc3ncc(F)s3)ccc12 [Example 111]
IC50 (Nav 1.7 [1]): 60 nM | IC50 (Nav 1.7 [2]): 332 nM

COc1ccccc1-c1nccc2cc(S(=O)(=O)Nc3ccncn3)ccc12 [Example 140, 1-(2-METHOXYPHENYL)-N-(PYRIMIDIN-4-YL)ISOQUINOLINE-6-SULFONAMIDE]
IC50 (Nav 1.7 [1]): 90 nM | IC50 (Nav 1.7 [2]): 10700 nM

COc1ccc(-c2nccc3cc(S(=O)(=O)Nc4ccncn4)ccc23)c(OC)n1 [Example 145, 1-(2,6-DIMETHOXYPYRIDIN-3-YL)-N-(PYRIMIDIN-4-YL)ISOQUINOLINE-6-SULFONAMIDE]
IC50 (Nav 1.7 [1]): 920 nM | IC50 (Nav 1.7 [2]): 16400 nM

CN1CCN(c2cc(C(F)(F)F)ccc2-c2cccc3cc(S(=O)(=O)Nc4nccs4)ccc23)CC1 [Example 84, 5-(2-(4-METHYLPIPERAZIN-1-YL)-4-(TRIFLUOROMETHYL)PHENYL)-N-(THIAZOL-2-YL)NAPHTHALENE-2-SULFONAMIDE 2,2,2-TRIFLUOROACETATE]
IC50 (Nav 1.7 [1]): 110 nM | IC50 (Nav 1.7 [2]): 588 nM

O=S(=O)(Nc1nccs1)c1ccc2c(C3CCCN3C3CCOCC3)nccc2c1 (stereo not shown) [Example 245, 1-(1-(TETRAHYDRO-2H-PYRAN-4-YL)PYRROLIDIN-2-YL)-N-(THIAZOL-2-YL)ISOQUINOLINE-6-SULFONAMIDE 2,2,2-TRIFLUOROACETATE]
IC50 (Nav 1.7 [1]): 2220 nM | IC50 (Nav 1.7 [2]): 30800 nM

COc1cc(C(F)(F)F)ccc1-c1cncc2cc(S(=O)(=O)Nc3nccs3)ccc12 [Example 288, 4-(2-METHOXY-4-(TRIFLUOROMETHYL)PHENYL)-N-(THIAZOL-2-YL)ISOQUINOLINE-7-SULFONAMIDE]
IC50 (Nav 1.7 [1]): 40 nM | IC50 (Nav 1.7 [2]): 600 nM

O=S(=O)(Nc1ncns1)c1ccc2c(N3CCCC3c3ccccc3)nccc2c1 (stereo not shown) [Example 236, 1-(2-PHENYLPYRROLIDIN-1-YL)-N-(1,2,4-THIADIAZOL-5-YL)ISOQUINOLINE-6-SULFONAMIDE]
IC50 (Nav 1.7 [1]): 130 nM | IC50 (Nav 1.7 [2]): 430 nM

COc1cc(C(F)(F)F)ccc1-c1cccc2cc(S(=O)(=O)Nc3ncc(F)s3)ccc12 [Example 107]
IC50 (Nav 1.7 [1]): 330 nM | IC50 (Nav 1.7 [2]): 3320 nM

O=S(=O)(Nc1ccncn1)c1ccc2c(-c3cnn(-c4cccc(Cl)c4)c3)nccc2c1 [Example 429, 1-(1-(3-CHLOROPHENYL)-1H-PYRAZOL-4-YL)-N-(PYRIMIDIN-4-YL)ISOQUINOLINE-6-SULFONAMIDE]
Nav1.7 Single Point Data IWQ (at […]) (%) (Nav 1.7 [1]; at […]): 54.7% | IC50 (Nav 1.7 [2]): > 30000 nM
